This is an account of results in patent US20150164117A1, “ENCAPSULATION OF FRAGRANCE AND/OR FLAVORS IN SILK FIBROIN BIOMATERIALS” (Tufts University, priority 2012, published 2015).

Values joined by “and” are separate entries in the source; they are usually repeats but may differ in a detail not shown here. Equal entries are not always repeated.

For series [1] the following is noted: cited from earlier work.
Series [2] in a line: Size of fragrance-loaded silk microparticles from silk/fragrance emulsions. In kind it is physicochemical. As to conditions: n = 3. Here is the method:
To determine the effectiveness of encapsulation of a silk based oil-water-oil system, fragrance oils targeted for encapsulation were added to the silk/polyvinyl alcohol (PVA) aqueous phase at ratios ranging from 1:2 up to 1:8 (v:v). The ratio of silk to fragrance oils was altered prior to sonication and addition of secondary oil phase. […] Formation of fragrance-loaded silk microparticles was more challenging at ˜1% silk concentrations for any of the fragrances tested.
The water phase was created by combining 5:1 (v:v) silk fibroin solution with 3% (w/v) PVA solution. The oil fragrance targeted for encapsulation was manually added to an aqueous phase. The stable primary O/W emulsion was sonicated (20% for 20 seconds) to disperse the oil, reduce the diameter of the oil particles and initiate β-sheet formation. The vegetable oil (sunflower oil) was added as the secondary oil phase at a 10:1 volumetric ratio with respect to the primary emulsion. The O/W/O emulsion was vortexed at high speed for 30 seconds and incubated overnight at room temperature. The microparticles were collected via centrifugation, and excess oil was removed by two successive ethanol rinses. The isolated particles were resuspended in deionized water and stored at room temperature.

Series [3] can be described thus: Limonene release in water from limonene/silk/PVA microparticles (TGA after soaking). In kind it is physicochemical. As to the method: FIGS. 22A-22B are data graphs showing retention/release of fragrance from the fragrance-encapsulated silk microparticles under a specified condition. The microparticles were then diluted in water and passed through 120 μm filter. The isolated microparticles were then incubated in water to determine fragrance release over time. FIG. 22A is a data graph of TGA (performed with ˜250 min 50° C. incubation, followed by ramping to 400° C. at 5° C./min) showing weight loss of fragrance-encapsulated silk microparticles over a period of time when subjected to various temperatures. […] These silk microparticles show retention across 14 days without any additional coatings. FIG. 22B is a bar graph showing percents of encapsulated limonene release in water from O/W/O PVA silk microparticles without coatings. Using the “no release” as the reference point for fragrance content, there was about 2-3% difference in mass for fragrance-encapsulated silk microparticles soaked in water. Mass loss corresponds to fragrance loss during soaking in an aqueous environment, with an increase of fragrance release after longer exposure to the aqueous environment.

The nature of series [4]: TGA with stepwise isothermal segments, fragrance protection by PEO/silk coatings. In kind it is physicochemical. As to conditions: limonene containing microparticles. The source says: It has been previously discussed that hydrated barriers can alter the rate of compound release from aqueous silk, hyaluronic acid, gelatin, and alginate constructs (Guziewicz et al., 2011; Elia et al., 2011; Omi et al., 1991; Sriamornsak et al., 2007; Chan et al., 2007; and Li et al., 2006). In combination with the hydrophobic nature of the fragrances, a protective barrier designed to maintain moisture can be desired. The coating scheme is illustrated in FIG. 27A. Each coating comprises a polyethylene oxide (PEO) layer surrounded by a silk fibroin film. Particles were coated with one, three or five coatings and a modified TGA was performed to assess fragrance retention. […] FIGS. 27B-27D depict scanning electron micrographs of these particles.
(§1) Thermogravimetric analysis (TGA) (TA Instruments Q500) was used to measure weight changes in the microparticles. For rapid estimates of microparticle composition the TGA was heated from 23° C. to 500° C. at a rate of ˜20° C./min. To distinguish surface fragrance from encapsulated fragrance, samples were run with a ˜250 minute incubation at 50° C. prior to continued heating. For analysis of fragrance protection the TGA was held isothermal for 30 minutes every 20° C. interval from 70° C. up to 210° C. For each segment weight loss was monitored and attributed to fragrance release from the microparticles.

The format of series [5] is physicochemical. As to the method: To determine fragrance content, thermogravimetric analysis (TGA) was performed on fragrance-loaded sill microparticles. Samples were allowed to air dry for 24 hours prior to analysis. FIGS. 18D-18F depict the results of the TGA for encapsulation of three fragrances, while FIGS. 18A-18C show the individual emulsion components. A small increase in temperature causes the ethanol to volatilize rapidly, while the silk and vegetable oil only begin to degrade at temperatures of 220° C. and 300° C. respectively. The fragrances used are highly volatile and were expected to vaporize well before the silk and oil components. As shown in FIG. 18D-18F, it is difficult to distinguish the fragrance component from the ethanol, they are both released from the microparticles in the same temperature range. To estimate the fragrance content, the change in rate of weight loss during heating from 23° C. to 100° C. was taken as the transition between primarily ethanol evaporation prior to change in rate and fragrances loss subsequently.
To address concerns with release between ethanol and the encapsulated fragrance, a 250 minute incubation at 50° C. was employed during a second set of TGA runs. This incubation was added to ensure that any free surface fragrance and ethanol would vaporize prior to further temperature ramping. After incubation the silk particles contain fragrance only if it was entrapped within the silk.
as §1

The nature of series [6]: Interfacial tension between silk solution and limonene (pendant drop). In kind it is physicochemical. Here is the method: To elucidate the interaction of silk and the fragrance oils the interfacial tension was measured. Interfacial tension between the two liquids dictates emulsion stability and ultimately microparticle size and distribution (Terjung et al., 2012). Various silk concentrations were assessed along with three silk molecular weight ranges: low, medium and high based on degumming times of ˜60, ˜30 and ˜10 minutes respectively. […] Interfacial tension drops when the molecular weight of the silk protein is decreased. This is in agreement with other studies that show a dependence of surface tension on molecular weight and molecular chain branching (Dettre et al., 1966 and Legrand et al., 1969). […] The highest interfacial tension was 8.16+/−0.57 mN/m for the […] molecular weight silk at a concentration of about 2%. […] Hung et al. discussed that an increase in the concentration of short chain molecules can correspond to a decrease in interfacial tension in an aqueous system (Ly et al. 2004). This is a behavior indicative of emulsifiers, which traditionally serve to stabilize mixtures and generally show better stability with increase in concentration (Djakovic et al., 1987).
Interfacial tension measurements were made using a Ramé-Hart Goniometer (Model 200) running DROPimage Standard analysis software. A silk solution drop of known volume was suspended on the tip of a needle which was submerged in the fragrant oil creating a pendent drop. The DROPimage software used the pendant drop image as well as known density values to calculate interfacial tension at the liquid-liquid interface.

A short description of series [7]: Dissolution of untreated loaded silk films and release of load in aqueous medium. In kind it is physicochemical. As to the method:
Rapid dissolution of films loaded with a dye and release of the dye from the films occur when the films are immersed in ˜37° C. buffer (FIG. 10). Dissolvable silk films loaded with an odor-releasing substance and/or flavoring substance (e.g., ˜0.5, 0.25 or 0.125 mg of adenosine per 0.2 mm^2 film) released the majority of the drug load (approx. 80%) within 15 minutes of exposure to 37° C. phosphate buffered saline (PBS) (Data not shown).

Setting [8] is: silk concentration ~3%, fragrance:silk ~1:2.
Where [9] appears, read: silk concentration ~5%, fragrance:silk ~1:2.

As to `CCCC(C)C(=O)OCC` (centres unmarked) [Applinate], the “Log P” value in series [1] was 2.76. For the same molecule, the Microparticle size was 9.53 ± 2.47 μm in series [2] (silk concentration 3%, fragrance:silk ~1:4); 9.22 ± 2.79 μm in series [2] (silk concentration 3%, fragrance:silk ~1:8); 9.64 ± 3.11 μm in series [2] (silk concentration 5%, fragrance:silk ~1:4); 9.61 ± 2.40 μm in series [2] (silk concentration 5%, fragrance:silk ~1:8); 8.49 ± 2.53 μm in series [2] (setting [8]); 8.49+/−2.53 μm and 8.49 ± 2.53 μm in series [2] (silk concentration ~3%, fragrance:silk ~1:2, listed as applinate). In addition, the Microparticle size is 8.11 ± 1.96 μm in series [2] (setting [9]); 8.11+/−1.76 μm and 8.11 ± 1.96 μm in series [2] (silk concentration ~5%, fragrance:silk ~1:2, listed as applinate).

Consider `C/C=C/C(=O)C1C(C)C=CCC1(C)C` (centres unmarked) [Delta-Damascone], for which the “Log P” value in series [1] is 3.91. Also, the Microparticle size was 7.60 ± 2.71 μm in series [2] (setting [8]) and 7.84 ± 1.49 μm in series [2] (setting [9]).

`C=CC(C)CCCC(C)(C)O` (centres unmarked) [Dihydromyrcenol]: the “Log P” value in series [1] was 3.25. The molecule further returned a Microparticle size in series [2] (setting [9]) of 7.71 ± 1.82 μm.

`C=C(C)C1CC=C(C)CC1` (centres unmarked) [Limonene]: in series [3] (uncoated limonene/silk/PVA O/W/O microparticles soaked in water, TGA), the “Difference in mass versus no release (fragrance loss on soaking in water)” value was 2-3%. Also, the “Retention in water without additional coatings” value in series [3] (uncoated limonene/silk/PVA microparticles incubated in water) amounted to 14 days. For the same molecule, the Microparticle size was 9.57 ± 2.70 μm in series [2] (setting [8]); 9.57+/−2.70 μm in series [2] (silk concentration ~3%, fragrance:silk ~1:2, listed as limonene); 12.40 ± 4.76 μm in series [2] (setting [9]); 12.40+/−4.96 μm in series [2] (silk concentration ~5%, fragrance:silk ~1:2, listed as limonene). Further, the “Weight Loss (%), Total Loss” value is reported as 8.2% in series [4] (1 PEO/silk coating, 70-210° C. segments) and 1.2% in series [4] (3 PEO/silk coatings, 70-210° C. segments). Further, the “Weight Loss (%)” value in series [4] (1 PEO/silk coating, isotherm segment 70° C.) is 0.179%; in series [4] (1 PEO/silk coating, isotherm segment 90° C.), 1.024%; in series [4] (1 PEO/silk coating, isotherm segment 110° C.), 0.154%; in series [4] (1 PEO/silk coating, isotherm segment 130° C.), 0.342%; in series [4] (1 PEO/silk coating, isotherm segment 150° C.), 0.323%; in series [4] (1 PEO/silk coating, isotherm segment 170° C.), 0.367%. In addition, the “Weight Loss (%)” value is recorded as 2.465% in series [4] (1 PEO/silk coating, isotherm segment 190° C.); 3.3201% in series [4] (1 PEO/silk coating, isotherm segment 210° C.); 0.035% in series [4] (3 PEO/silk coatings, isotherm segment 70° C.); −0.019% in series [4] (3 PEO/silk coatings, isotherm segment 90° C.); 0.091% in series [4] (3 PEO/silk coatings, isotherm segment 110° C.); −0.102% in series [4] (3 PEO/silk coatings, isotherm segment 130° C.). Besides, the “Weight Loss (%)” value in series [4] (3 PEO/silk coatings, isotherm segment 150° C.) is on record as 0.056%; in series [4] (3 PEO/silk coatings, isotherm segment 170° C.), 0.288%; in series [4] (3 PEO/silk coatings, isotherm segment 190° C.), 0.328%; in series [4] (3 PEO/silk coatings, isotherm segment 210° C.), 0.478%; in series [4] (5 PEO/silk coatings, isotherm segment 70° C.) it was 1.535%; in series [4] (5 PEO/silk coatings, isotherm segment 90° C.), 3.531%. Also, the “Weight Loss (%)” value in series [4] (5 PEO/silk coatings, isotherm segment 110° C.) came to 3.579%; in series [4] (5 PEO/silk coatings, isotherm segment 130° C.) it was 2.391%; in series [4] (5 PEO/silk coatings, isotherm segment 150° C.), 1.549%; in series [4] (5 PEO/silk coatings, isotherm segment 170° C.), 1.314%; in series [4] (5 PEO/silk coatings, isotherm segment 190° C.) it was 1.278%; in series [4] (5 PEO/silk coatings, isotherm segment 210° C.) it was 1.615%. In addition, in series [4] (5 PEO/silk coatings, 70-210° C. segments), the “Weight Loss (%), Total Loss (fragrance retention)” value turned out to be 16.8%. The “Loss of limonene during incubation period” value in series [5] (O/W/O microparticles, TGA with 250 minute incubation at 50° C.) is “majority of the limonene is lost”. Also, the “Limonene fraction of microparticles” value in series [5] (preformed PVA/silk microparticles soaked about 1 or about 24 hours in limonene oil, TGA) is on record as 85-90%. The Interfacial tension in series [6] (between silk and limonene, lowest molecular weight and highest silk concentrations) is 4.59+/−0.32 mN/m; in series [6] (between silk and limonene, lowest molecular weight silk at about 2% (highest value found)), 8.16+/−0.57 mN/m; in series [6] (limonene / 6% silk at 3.1 uM NaCl), 1.82+/−0.39 mN/m; in series [6] (limonene / unaltered 6% silk (30 minute degummed), n=3), 4.78+/−0.28 mN/m.

On to `Nc1ncnc2c1ncn2[C@@H]1O[C@H](CO)[C@@H](O)[C@H]1O` [adenosine], for which the Drug load released entry in series [7] (dissolvable silk films, ~0.5, 0.25 or 0.125 mg per 0.2 mm^2 film, within 15 minutes in 37° C. PBS, data not shown) is “approx. 80%”.

Consider `O=C1/C(=C2\Nc3ccc(S(=O)(=O)[O-])cc3C2=O)Nc2ccc(S(=O)(=O)[O-])cc21.[Na+].[Na+]` [indigo carmine], for which, in series [7] (untreated dye-loaded silk film immersed in ~37° C. water), the “Time to full dissolution” value is “about 30 minutes”.

For the molecule vegetable oil, in series [5], the “Temperature at which degradation begins” value turned out to be 300 °C.
